The text below walks through data of PubChem BioAssay AID328 (DTP/NCI, 2004).

This experiment concerns BDF1 mice, P388 leukemia ip, median survival T/C. As to the kind of experiment: NCI In Vivo Anticancer Drug Screen. Data for tumor model P388 Leukemia (intraperitoneal) in B6D2F1 (BDF1) mice. Particulars: endpoint: median survival time, higher = longer survival. Summed up: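 Mice carrying the transplantable tumour receive compound or vehicle. Survival is followed in each arm, and the treated measure is divided by the vehicle measure.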

The mark [1] stands for this setting: dose: 100.0 mg/kg/injection, schedule: Q01DX009 (ip), vehicle: saline.
Where [2] appears, read: dose: 100.0 mg/kg/injection, schedule: Q04DX003 (ip), vehicle: saline with Tween-80.
Setting [3] is: dose: 200.0 mg/kg/injection, schedule: Q04DX003 (ip), vehicle: saline with Tween-80.
Where [4] appears, read: dose: 400.0 mg/kg/injection, schedule: Q04DX003 (ip), vehicle: saline with Tween-80.
The mark [5] stands for this setting: dose: 25.0 mg/kg/injection, schedule: Q01DX009 (ip), vehicle: saline.
Setting [6] is: dose: 25.0 mg/kg/injection, schedule: Q04DX003 (ip), vehicle: saline.
Setting [7] is: dose: 50.0 mg/kg/injection, schedule: Q04DX003 (ip), vehicle: saline.

Several values for one entry are separate records, joined by “and”; a condition that tells them apart may be missing. Equal values may be shown once. Toxic doses and inconclusive results are not listed.

In the case of `CCOC(=O)CCOc1ccccc1N(CCCl)CCCl`, the T/C (dose: 0.66 mg/kg/injection, schedule: Q04DX003 (ip), vehicle: other) is 100 % of control; the T/C (dose: 1.0 mg/kg/injection, schedule: Q04DX003 (ip), vehicle: other) was 104 % of control; the T/C (dose: 1.5 mg/kg/injection, schedule: Q04DX003 (ip), vehicle: other) was 104 % of control; the T/C (dose: 1.56 mg/kg/injection, schedule: Q04DX003 (ip), vehicle: other) is 154 % of control; the T/C (dose: 2.25 mg/kg/injection, schedule: Q04DX003 (ip), vehicle: other) is 114 % of control; the T/C (dose: 3.0 mg/kg/injection, schedule: Q04DX003 (ip), vehicle: saline sonified) was 100 % of control. Further, the T/C (dose: 3.13 mg/kg/injection, schedule: Q04DX003 (ip), vehicle: other) is 181 % of control; the T/C (dose: 3.5 mg/kg/injection, schedule: Q04DX003 (ip), vehicle: saline with Tween-80) is 172 % of control; the T/C (dose: 5.2 mg/kg/injection, schedule: Q04DX003 (ip), vehicle: saline with Tween-80) is 190 % of control; the T/C (dose: 6.0 mg/kg/injection, schedule: Q04DX003 (ip), vehicle: saline sonified) was 100 % of control; the T/C (dose: 9.0 mg/kg/injection, schedule: Q04DX003 (ip), vehicle: saline sonified) is 100 % of control; the T/C (dose: 11.0 mg/kg/injection, schedule: Q04DX003 (ip), vehicle: other) was 227 % of control. In addition, the T/C by setting is: (dose: 12.0 mg/kg/injection, schedule: Q01DX009 (ip), vehicle: saline) 152 % of control; (dose: 12.0 mg/kg/injection, schedule: Q04DX003 (ip), vehicle: saline) 156 % of control; (dose: 12.5 mg/kg/injection, schedule: Q04DX003 (ip), vehicle: other) 222 % of control; (dose: 16.5 mg/kg/injection, schedule: Q04DX003 (ip), vehicle: other) 294 % of control; (dose: 25.0 mg/kg/injection, schedule: Q04DX003 (ip), vehicle: other) 150 % of control; (dose: 25.0 mg/kg/injection, schedule: Q04DX003 (ip), vehicle: saline sonified) 159 % of control. Further, the T/C (dose: 50.0 mg/kg/injection, schedule: Q04DX003 (ip), vehicle: saline sonified) is 159 % of control and the T/C (dose: 100.0 mg/kg/injection, schedule: Q04DX003 (ip), vehicle: saline sonified) was 168 % of control.
In the case of `O=c1ccc2cc(OC3OC(CO)C(O)C(O)C3O)c(O)cc2o1` (stereo not drawn), the T/C under setting [1] was 95 % of control; the T/C (dose: 100.0 mg/kg/injection, schedule: Q04DX003 (ip), vehicle: alcohol) was 105 % of control; the T/C (dose: 200.0 mg/kg/injection, schedule: Q01DX009 (ip), vehicle: saline) was 104 % of control; the T/C (dose: 200.0 mg/kg/injection, schedule: Q04DX003 (ip), vehicle: alcohol) is 100 % of control; the T/C (dose: 400.0 mg/kg/injection, schedule: Q01DX009 (ip), vehicle: saline) is 109 % of control; the T/C (dose: 400.0 mg/kg/injection, schedule: Q04DX003 (ip), vehicle: alcohol) was 110 % of control.
`OCC1OCC(O)C(O)C1O` (stereo not drawn): the T/C by setting is: (dose: 12.5 mg/kg/injection, schedule: Q01DX010 (ip), vehicle: saline) 91 % of control; (dose: 25.0 mg/kg/injection, schedule: Q01DX010 (ip), vehicle: saline) 108 % of control; (dose: 32.0 mg/kg/injection, schedule: Q03HX024 (ip), vehicle: saline) 95 % of control; (dose: 50.0 mg/kg/injection, schedule: Q01DX010 (ip), vehicle: saline) 108 % of control; (dose: 64.0 mg/kg/injection, schedule: Q03HX024 (ip), vehicle: saline) 87 % of control; (dose: 100.0 mg/kg/injection, schedule: Q01DX010 (ip), vehicle: saline) 91 % of control. The T/C is, setting by setting: (dose: 128.0 mg/kg/injection, schedule: Q03HX024 (ip), vehicle: saline) 100 % of control; (dose: 128.0 mg/kg/injection, schedule: Q04DX003 (ip), vehicle: saline) 87 % of control and 104 % of control; (dose: 200.0 mg/kg/injection, schedule: Q01DX010 (ip), vehicle: saline) 110 % of control; (dose: 256.0 mg/kg/injection, schedule: Q04DX003 (ip), vehicle: saline) 91 % of control and 100 % of control; (dose: 512.0 mg/kg/injection, schedule: Q04DX003 (ip), vehicle: saline) 90 % of control; (dose: 800.0 mg/kg/injection, schedule: Q01DX010 (ip), vehicle: saline) 115 % of control. Under “dose: 1024.0 mg/kg/injection, schedule: Q04DX003 (ip), vehicle: saline”, the T/C is 100 % of control.
Turning to `OCCOc1cccc(OCCO)c1`, the T/C under setting [2] is 100 % of control, the T/C under setting [3] was 100 % of control and the T/C under setting [4] was 104 % of control.
Regarding `Br[CH2][Sn]([Br])([Br])[CH2]Br`, the T/C by setting is: (dose: 3.12 mg/kg/injection, schedule: Q01DX009 (ip), vehicle: saline with Tween-80) 111 % of control; (dose: 6.25 mg/kg/injection, schedule: Q01DX009 (ip), vehicle: saline with Tween-80) 98 % of control; (dose: 12.5 mg/kg/injection, schedule: Q01DX009 (ip), vehicle: saline with Tween-80) 115 % of control.
Regarding `COc1ccc(Cl)cc1NC1=CC(c2ccc(Cl)cc2)OC1=O` (stereo not drawn), the T/C is 100 % of control (dose: 100.0 mg/kg/injection, schedule: Q01DX001 (ip), vehicle: saline with Tween-80); 100 % of control (dose: 200.0 mg/kg/injection, schedule: Q01DX001 (ip), vehicle: saline with Tween-80); 95 % of control (dose: 400.0 mg/kg/injection, schedule: Q01DX001 (ip), vehicle: saline with Tween-80).
For the molecule `O=C(NC(NC(=O)c1ccc(Cl)cc1)C(Cl)(Cl)Cl)c1ccc(Cl)cc1`, the T/C (dose: 25.0 mg/kg/injection, schedule: Q04DX003 (ip), vehicle: saline with Tween-80) is 90 % of control; the T/C (dose: 50.0 mg/kg/injection, schedule: Q04DX003 (ip), vehicle: saline with Tween-80) was 86 % of control; the T/C under setting [2] is 90 % of control.
Regarding `COc1cc2ccncc2cc1OCc1ccccc1`, the T/C is, setting by setting: (dose: 6.25 mg/kg/injection, schedule: Q04DX003 (ip), vehicle: saline) 100 % of control; (dose: 12.5 mg/kg/injection, schedule: Q04DX003 (ip), vehicle: saline) 100 % of control and 118 % of control; under setting [5], 86 % of control; under setting [6], 93 % of control and 103 % of control; (dose: 50.0 mg/kg/injection, schedule: Q01DX009 (ip), vehicle: saline) 92 % of control; under setting [7], 98 % of control and 118 % of control. Besides, the T/C runs as follows: under setting [1], 104 % of control; (dose: 100.0 mg/kg/injection, schedule: Q04DX003 (ip), vehicle: saline) 97 % of control and 100 % of control; (dose: 200.0 mg/kg/injection, schedule: Q04DX003 (ip), vehicle: saline) 93 % of control and 120 % of control; (dose: 400.0 mg/kg/injection, schedule: Q04DX003 (ip), vehicle: saline) 106 % of control.
As to `CCCN1CCN(c2ccc([N+](=O)[O-])c3no[n+]([O-])c23)CC1`, the T/C by setting is: (dose: 2.5 mg/kg/injection, schedule: Q01DX009 (ip), vehicle: saline with Tween-80) 122 % of control; (dose: 10.0 mg/kg/injection, schedule: Q01DX009 (ip), vehicle: saline with Tween-80) 155 % of control.
For `O=C(Cc1ccc(F)cc1)c1ccccc1`, the T/C was 88 % of control under setting [2], 111 % of control under setting [3] and 105 % of control under setting [4].
As to `BrC1CCCCCC(Br)C12OCCO2` (stereo not drawn), the T/C runs as follows: (dose: 100.0 mg/kg/injection, schedule: Q04DX003 (ip), vehicle: Klucel (hydroxypropylcellulose) (HPC)) 100 % of control; (dose: 200.0 mg/kg/injection, schedule: Q04DX003 (ip), vehicle: Klucel (hydroxypropylcellulose) (HPC)) 95 % of control; (dose: 400.0 mg/kg/injection, schedule: Q04DX003 (ip), vehicle: Klucel (hydroxypropylcellulose) (HPC)) 100 % of control.
In the case of `C=CCC#N`, the T/C (dose: 12.5 mg/kg/injection, schedule: Q01DX009 (ip), vehicle: saline) was 95 % of control; the T/C under setting [5] is 95 % of control; the T/C under setting [6] was 100 % of control; the T/C under setting [7] is 95 % of control.
